# Experimental data as given in publication PMC6680430, “Quantitative Prediction of Human Pharmacokinetics and Pharmacodynamics of CKD519, a Potent Inhibitor of Cholesteryl Ester Transfer Protein (CETP)” (Pharmaceutics, 2019).
# Assay: animal full PK study in monkeys (NCA and PK model)
# Assay type: in vivo, Cynomolgus monkey
# Conditions: monkey; for Tmax: median (range)
# Procedure: Animal PK data for analysis were collected from preclinical studies performed at ChongKunDang laboratory. All animal experiments were performed with relevant guidelines and regulations, and the protocol was approved by the Institutional Animal Care and Use Committee (IACUC) of ChongKunDang (Approval number: S-13-015). A single dose of CKD519 was administered either orally or via intravenous infusion to hamsters (intravenous dose of 0.5 mg/kg, oral dose of 3, 15, or 45 mg/kg, n = 30); rats (intravenous dose of 0.5 mg/kg, oral dose of 5, 15, or 45 mg/kg, n = 20); and monkeys (intravenous dose of 0.1 mg/kg, oral dose of 1, 5, or 30 mg/kg, n = 16). The identical solution was administered to all animal species in the fasted state. Plasma CKD519 concentration was measured before and at 0.083, 0.25, 0.5, 1, 2, 4, 8, and 24 h after administration in hamsters and rats, and before and at 0.083, 0.25, 0.5, 1, 2, 4, 6, 8, 12, 24, 48, and 72 h after administration in monkeys. Two hamsters given identical doses were sampled in a rotating manner.
# The plasma samples were stored at −70 °C before the analysis and were thawed at room temperature. […] A sensitive, specific, and validated liquid chromatography coupled with a tandem mass spectrometer (HPLC-MS/MS) assay was used for the determination of CKD519 concentration in animal plasma samples. A structural analogue of CKD519 was used as the internal standard. The validated working range was from 2 ng/mL (the lower limit of quantification, LLOQ) to 20,000 ng/mL. Quality control (QC) samples were analyzed together with the study samples. Intra-day and inter-day precision and accuracy results were within the acceptance criteria based on the Ministry of Food and Drug Safety (MFDS) guidelines. An exploratory data analysis was performed through non-compartmental analysis (NCA) using the NonCompart package (developed by Bae, version 0.4.4) in R (version 3.5.1, The R Foundation, Vienna, Austria).
# Using the PK data from each species, nonlinear mixed-effect modeling was conducted using NONMEM (version 7.4, Icon Development Solutions, Ellicott City, MD, USA) reflecting the clues from NCA. The first-order conditional estimation method with interaction (FOCE-I) was used whenever applicable. The adequacy of the model was checked using changes in the objective function value (OFV), visual inspection of various diagnostic plots (goodness-of-fit (GOF) plot), and methods of visual predictive check (VPC) and bootstrap were used for the diagnostics on the model stability and parameter reliability. The significance of model improvement was evaluated using a likelihood-ratio test (LRT). In the nested models, the result was considered statistically significant if the OFV decreased more than 3.84 (p-value < 0.05, degree of freedom (df) = 1) and 5.99 (p-value < 0.05, df = 2). The degree of freedom is defined as the gap of the numbers of parameters of the two subsequent models that are being compared. In the case of non-nested models, the Akaike information criteria (AIC) value was used to select the model that best described the data. R (version 3.5.1., R Foundation for Statistical Computing, Vienna, Austria) was used for data preparation, NCA, graphical analysis, model diagnostics, and statistical summaries.
# Initially, a two-compartment model with first-order absorption was developed to describe the biphasic curve, and several absorption structures (e.g., zero-order with absorption lag time, Weibull-type absorption) were applied to the base model if needed. The change in absolute bioavailability (F) by dose levels was also considered. […]
# [1] = PK model, final estimate (%RSE)
# [2] = intravenous 0.1 mg/kg, NCA, mean ± SD
# [3] = two-compartment PK model, final estimate (%RSE)
compound,measurement,setting,value
COc1cc(F)c(C(C)C)cc1C1=C(CN2C(=O)O[C@H](c3cc(C(F)(F)F)cc(C(F)(F)F)c3)[C@@H]2C)CC(C)(C)CC1 [CKD519],α (scale parameter of Weibull absorption),[1],5.44 (11.8%)
same,β (shape parameter of Weibull absorption),[1],3.54 (6.50%)
same,AUClast,[2],5150 ± 1530 ng·h/mL
same,V/F * (V for intravenous),[2],3500 ± 1380 mL
same,ke,[2],0.0105 ± 0.00836 h⁻¹
same,t1/2,[2],104 ± 80.0 h
same,Tmax,"intravenous 0.1 mg/kg, NCA",0.1665 (0.083–0.25) h
same,AUClast,"oral 1 mg/kg, NCA, mean ± SD",8940 ± 954 ng·h/mL
same,CL/F,"oral 1 mg/kg, NCA, mean ± SD",230 ± 64.6 mL/h
same,Cmax,"oral 1 mg/kg, NCA, mean ± SD",752 ± 148 ng/mL
same,V/F,"oral 1 mg/kg, NCA, mean ± SD",17600 ± 4000 mL
same,ke,"oral 1 mg/kg, NCA, mean ± SD",0.0140 ± 0.0057 h⁻¹
same,t1/2,"oral 1 mg/kg, NCA, mean ± SD",59.9 ± 35.5 h
same,Tmax,"oral 1 mg/kg, NCA",5.5 (5–6) h
same,AUClast,"oral 5 mg/kg, NCA, mean ± SD",29500 ± 4840 ng·h/mL
same,CL/F,"oral 5 mg/kg, NCA, mean ± SD",309 ± 77.3 mL/h
same,Cmax,"oral 5 mg/kg, NCA, mean ± SD",4700 ± 1100 ng/mL
same,V/F,"oral 5 mg/kg, NCA, mean ± SD",50500 ± 16900 mL
same,ke,"oral 5 mg/kg, NCA, mean ± SD",0.00707 ± 0.00412 h⁻¹
same,t1/2,"oral 5 mg/kg, NCA, mean ± SD",125 ± 64.6 h
same,Tmax,"oral 5 mg/kg, NCA",7 (6–8) h
same,AUClast,"oral 30 mg/kg, NCA, mean ± SD",79100 ± 15600 ng·h/mL
same,CL/F,"oral 30 mg/kg, NCA, mean ± SD",999 ± 123 mL/h
same,Cmax,"oral 30 mg/kg, NCA, mean ± SD",10200 ± 2390 ng/mL
same,V/F,"oral 30 mg/kg, NCA, mean ± SD",67800 ± 44900 mL
same,ke,"oral 30 mg/kg, NCA, mean ± SD",0.0194 ± 0.0104 h⁻¹
same,t1/2,"oral 30 mg/kg, NCA, mean ± SD",46.3 ± 26.8 h
same,Tmax,"oral 30 mg/kg, NCA",8 (8–8) h
same,CL,[3],0.0344 (24.0%) L/h
same,Q,[3],0.0895 (49.9%) L/h
same,Vc,[3],0.383 (74.7%) L
same,Vp,[3],3.40 (51.5%) L
